Data: US11406590B2, “Essential oil emulsion nostril treatment composition” (King Abdulaziz University, priority 2020, dated 2022)

System: Salmonella enterica subsp. Enterica serovar typhimurium (ATCC 29629, TA 1535)
Test: Ames test of liposomal preparation
Type: cell-based
Details: 20 and 200 nmol
Description: To evaluate the safety of the liposomal preparation described in Example 1, the Ames test is performed according to the procedure described by, and incorporated by reference to, Ames et al, Carcinogens are mutagens: their detection and classification. Environ Health Perspect. 1973 December; 6:115-8; Mortelmans and Zeiger, The Ames Salmonella/microsome mutagenicity assay. Mutat Res. 2000 Nov. 20; 455(1-2):29-60.
Briefly, the test organism Salmonella enterica subsp. Enterica serovar typhimurium (ATCC® 29629-Strain Designations: TA 1535), an auxotrophic mutant, is provided by ATCC, Manassas, USA. This auxotrophic isolate has a mutation in its DNA which prevents it from producing histidine and thus requires histidine for its growth.
Potentially mutagenic substances are identified by contacting them with this auxotrophic mutant and measuring the frequency of mutations that restore the ability of this auxotroph to grown a medium not containing histidine. […]
A degree of mutagenicity of the liposome preparation is determined by comparison of the number of colonies appearing on the negative and positive controls and the number of colonies on the solid medium containing different concentrations of the liposome preparation containing the essential oil-in-water emulsion of Example 1.

For `CC[n+]1c(-c2ccccc2)c2cc(N)ccc2c2ccc(N)cc21` [ethidium bromide], the “Colony counts on positive control plates” value was “significant increase”.
